How the values were obtained:
[1] = test system: X4-tropic NL4-3 strain of HIV (BlaM-Vpr-containing virions) fusing to HeLa-CD4 cells; conditions: 250 nM added 1 hour prior to infection, NL4-3 200 ng p24-Gag, 2 hours, about 10% blue cells without inhibitor
Description: The virion-based fusion assay was performed in three successive steps, including 1) incubation of target cells with virus particles; 2) loading of target cells with CCF2/AM dye, and 3) development and detection of the BlaM reaction. Once target cells were loaded with the CCF2 dye, the cells were maintained at room temperature to avoid export of CCF2. Since viral infections are performed at 37° C., the infection step was performed first, and then the cell cultures were subsequently loaded with the CCF2/AM dye. […]
The change in emission fluorescence of CCF2 following cleavage by the BlaM-Vpr chimera was monitored by flow cytometry using a 3 laser Vantage SE instrument (Becton Dickinson, Inc., San Jose, Calif.). […] Blue emission was detected using an HQ455/50 filter while green emission data was collected using an HQ545/90 BP filter. […] Data were collected using CellQuest and analyzed with FlowJo software (Treestar Inc., San Carlos, Calif.). […]
Cultures of HeLa-CD4 cells expressing endogenous CXCR4 receptors were either mock-infected or infected for 2 hours with BlaM-Vpr-containing virions (200 ng p24-Gag) corresponding to an X4-tropic NL4-3 strain of HIV or an R5-tropic 81A strain of HIV. […] After loading of the cells with the CCF2/AM dye, fusion was analyzed by fluorescence microscopy. […]

[2] = test system: X4-tropic NL4-3 virions containing BlaM-Vpr fusing to SupT1 cells; test: Virion-based fusion assay (BlaM-Vpr/CCF2) in SupT1 cells, flow cytometry; type: cell-based, HIV-1; conditions: NL4-3, 2 hours, about 20% of cells shifted without inhibitor
Description: (§1) No antibiotics were added to the culture media.
(§2) Light splitting was performed using a 505 SP filter.
After CCF2/AM loading, fusion was analyzed by multi-parameter flow cytometry using a violet laser for excitation of CCF2.

[3] = test system: CXCR4-tropic HIV-1 virions containing BlaM-Vpr fusing to primary PBMCs; test: Virion-based fusion assay (BlaM-Vpr/CCF2) in PHA-stimulated PBMCs, flow cytometry; type: cell-based; conditions: CXCR4-tropic virions 100 ng p24 Gag, 2 hours, 5.2% of cells fused without inhibitor
Description: as §1, §2
PBMCs were activated with phytohemagglutinin (PHA) (10 ug/ml) overnight and subsequently cultured in IL-2 (20 IU/ml) for 5 days. The cells were then either mock-infected (FIG. 5, panel a) or infected for 2 hours with 100 ng p24-Gag of X4-tropic NL4-3 virions containing the BlaM-Vpr chimeric viral protein (FIG. 5, panels b, c, d, and e) or 500 ng p24-Gag of R5-tropic […] virions containing the BlaM-Vpr chimeric viral protein (FIG. 5, panels f, g, h, and i) either in the absence of inhibitors (FIG. 5, panel b and f) or in the presence of AMD3100 (250 nM, FIG. 5, panel c and g), […] (250 nM, FIG. 5, panels d and h), or AZT (10 μM, FIG. 5, panels e and i). After CCF2/AM dye loading of the cells, the BlaM reaction was allowed to develop for 12 hours. Virion fusion was analyzed by multi-parameter flow cytometry.

[4] = test system: CCR5-tropic strain of HIV-1 (81A) containing BlaM-Vpr fusing to CCR5-Jurkat T cells; test: Virion-based fusion assay (BlaM-Vpr/CCF2) in Jurkat T cells expressing CCR5; type: cell-based; conditions: 250 nM preincubation, R5-tropic 81A virions
Description: as §1, §2
To investigate whether the BlaM-Vpr assay discriminates between productive and non-productive virion entry by fusion and endocytosis respectively, Jurkat T cells either expressing or not expression CCR5 were incubated with a CCR5-tropic strain of HIV-1 (81A) containing BlaM-Vpr (FIG. 3). […] These 81A virions were capable of fusion as indicated by the increase in blue fluorescence obtained when these virions were incubated with Jurkat T cells expressing CCR5 (FIG. 3, panel d, compare with mock infection control in FIG. 3, panel c).

| Structure (SMILES) | blue cells (virion fusion, CCF2 cleavage) in virally infected cells pretreated with inhibitor [1] | shift to increased blue fluorescence induced by viral infection (virion fusion) ([2]; 250 nM pretreatment) | inhibition of shift to greater blue fluorescence (virion fusion) ([3]; 250 nM pretreatment) | shift to increased blue fluorescence (virion fusion) [4] | shift to increased blue fluorescence induced by viral infection (virion fusion) ([2]; 10 μM) | inhibition of shift to greater blue fluorescence (virion fusion) ([3]; 10 μM pretreatment) |
| --- | --- | --- | --- | --- | --- | --- |
| c1cc(CN2CCCNCCNCCCNCC2)ccc1CN1CCCNCCNCCCNCC1 [AMD3100] | essentially no blue cells were detected | almost completely blocked | inhibited this change |  |  |  |
| Cc1ccc(-c2ccc3c(c2)C=C(C(=O)Nc2ccc(C[N+](C)(C)C4CCOCC4)cc2)CCC3)cc1.[Cl-] [TAK-779] |  |  | produced no inhibitory effect | no shift to increased blue fluorescence was observed |  |  |
| Cc1cn([C@H]2C[C@H](N=[N+]=[N-])[C@@H](CO)O2)c(=O)[nH]c1=O [AZT] |  |  |  |  | did not impair the shift to greater blue fluorescence | produced no inhibitory effect |
